Data: ChEMBL document CHEMBL2074280, “Acceleration of MRP-associated efflux of rhodamine 123 by genistein and related compounds” (Br J Cancer, 1996)

Legend:
Assay type in all cases: functional, cell-based
[1] = target: T1, Multidrug resistance-associated protein 1 (Homo sapiens, UniProt P33527); assay: TP_TRANSPORTER: increase in DNR intracellular accumulation (DNR: 0.5 uM, Genistein: 200 uM) in MOR-R cells
[2] = target: T1, Multidrug resistance-associated protein 1; assay: TP_TRANSPORTER: increase in DNR intracellular accumulation (DNR: 0.5 uM, Genistein: 200 uM) in COR-L23/R cells
[3] = target: ATP-dependent translocase ABCB1 (Homo sapiens, UniProt P08183); assay: TP_TRANSPORTER: increase in DNR intracellular accumulation (DNR: 0.5 uM, Genistein: 200 uM) in H69/LX4 cells; details: h69/lx4, 200 µM

Measured: Activity

T1 sequence (P33527 whole entry): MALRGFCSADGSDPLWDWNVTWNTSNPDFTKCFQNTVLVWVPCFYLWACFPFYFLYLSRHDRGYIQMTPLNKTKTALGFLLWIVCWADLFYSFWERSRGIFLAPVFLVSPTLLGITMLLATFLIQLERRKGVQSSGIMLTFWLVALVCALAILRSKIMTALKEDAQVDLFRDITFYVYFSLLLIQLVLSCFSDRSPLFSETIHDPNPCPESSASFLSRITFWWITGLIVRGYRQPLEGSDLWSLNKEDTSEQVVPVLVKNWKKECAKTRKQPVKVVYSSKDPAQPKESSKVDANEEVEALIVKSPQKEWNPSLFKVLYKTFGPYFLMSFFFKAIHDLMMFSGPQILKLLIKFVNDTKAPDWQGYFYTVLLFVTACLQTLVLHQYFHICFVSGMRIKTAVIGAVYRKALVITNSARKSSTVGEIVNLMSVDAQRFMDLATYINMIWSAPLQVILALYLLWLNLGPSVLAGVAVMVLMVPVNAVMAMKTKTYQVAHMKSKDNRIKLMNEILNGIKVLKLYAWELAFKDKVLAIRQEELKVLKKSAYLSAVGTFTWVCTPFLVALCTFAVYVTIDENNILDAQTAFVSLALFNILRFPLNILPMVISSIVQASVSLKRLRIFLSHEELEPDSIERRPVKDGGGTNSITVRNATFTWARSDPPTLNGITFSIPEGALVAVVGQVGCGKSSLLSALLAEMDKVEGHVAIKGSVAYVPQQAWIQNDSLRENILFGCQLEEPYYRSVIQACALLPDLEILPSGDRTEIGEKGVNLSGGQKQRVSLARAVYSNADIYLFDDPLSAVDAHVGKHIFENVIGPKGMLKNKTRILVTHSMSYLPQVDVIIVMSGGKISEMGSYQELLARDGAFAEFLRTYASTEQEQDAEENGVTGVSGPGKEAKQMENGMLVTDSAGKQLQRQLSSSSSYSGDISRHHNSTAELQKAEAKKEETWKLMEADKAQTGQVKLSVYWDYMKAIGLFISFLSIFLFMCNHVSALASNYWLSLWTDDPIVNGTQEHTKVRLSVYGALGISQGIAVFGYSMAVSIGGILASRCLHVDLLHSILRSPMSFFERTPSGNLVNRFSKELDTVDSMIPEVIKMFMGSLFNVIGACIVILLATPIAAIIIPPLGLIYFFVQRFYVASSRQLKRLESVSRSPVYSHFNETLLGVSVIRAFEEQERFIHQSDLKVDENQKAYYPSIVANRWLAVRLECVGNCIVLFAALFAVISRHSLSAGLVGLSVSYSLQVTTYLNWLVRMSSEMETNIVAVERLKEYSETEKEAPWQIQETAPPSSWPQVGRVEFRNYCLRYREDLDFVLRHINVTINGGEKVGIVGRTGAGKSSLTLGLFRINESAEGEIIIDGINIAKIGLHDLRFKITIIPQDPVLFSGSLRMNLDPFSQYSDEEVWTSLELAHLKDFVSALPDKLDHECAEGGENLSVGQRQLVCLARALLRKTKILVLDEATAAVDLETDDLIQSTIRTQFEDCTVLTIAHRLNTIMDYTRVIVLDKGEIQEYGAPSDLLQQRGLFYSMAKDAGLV
Chain of ATP-dependent translocase ABCB1 (P08183 whole entry): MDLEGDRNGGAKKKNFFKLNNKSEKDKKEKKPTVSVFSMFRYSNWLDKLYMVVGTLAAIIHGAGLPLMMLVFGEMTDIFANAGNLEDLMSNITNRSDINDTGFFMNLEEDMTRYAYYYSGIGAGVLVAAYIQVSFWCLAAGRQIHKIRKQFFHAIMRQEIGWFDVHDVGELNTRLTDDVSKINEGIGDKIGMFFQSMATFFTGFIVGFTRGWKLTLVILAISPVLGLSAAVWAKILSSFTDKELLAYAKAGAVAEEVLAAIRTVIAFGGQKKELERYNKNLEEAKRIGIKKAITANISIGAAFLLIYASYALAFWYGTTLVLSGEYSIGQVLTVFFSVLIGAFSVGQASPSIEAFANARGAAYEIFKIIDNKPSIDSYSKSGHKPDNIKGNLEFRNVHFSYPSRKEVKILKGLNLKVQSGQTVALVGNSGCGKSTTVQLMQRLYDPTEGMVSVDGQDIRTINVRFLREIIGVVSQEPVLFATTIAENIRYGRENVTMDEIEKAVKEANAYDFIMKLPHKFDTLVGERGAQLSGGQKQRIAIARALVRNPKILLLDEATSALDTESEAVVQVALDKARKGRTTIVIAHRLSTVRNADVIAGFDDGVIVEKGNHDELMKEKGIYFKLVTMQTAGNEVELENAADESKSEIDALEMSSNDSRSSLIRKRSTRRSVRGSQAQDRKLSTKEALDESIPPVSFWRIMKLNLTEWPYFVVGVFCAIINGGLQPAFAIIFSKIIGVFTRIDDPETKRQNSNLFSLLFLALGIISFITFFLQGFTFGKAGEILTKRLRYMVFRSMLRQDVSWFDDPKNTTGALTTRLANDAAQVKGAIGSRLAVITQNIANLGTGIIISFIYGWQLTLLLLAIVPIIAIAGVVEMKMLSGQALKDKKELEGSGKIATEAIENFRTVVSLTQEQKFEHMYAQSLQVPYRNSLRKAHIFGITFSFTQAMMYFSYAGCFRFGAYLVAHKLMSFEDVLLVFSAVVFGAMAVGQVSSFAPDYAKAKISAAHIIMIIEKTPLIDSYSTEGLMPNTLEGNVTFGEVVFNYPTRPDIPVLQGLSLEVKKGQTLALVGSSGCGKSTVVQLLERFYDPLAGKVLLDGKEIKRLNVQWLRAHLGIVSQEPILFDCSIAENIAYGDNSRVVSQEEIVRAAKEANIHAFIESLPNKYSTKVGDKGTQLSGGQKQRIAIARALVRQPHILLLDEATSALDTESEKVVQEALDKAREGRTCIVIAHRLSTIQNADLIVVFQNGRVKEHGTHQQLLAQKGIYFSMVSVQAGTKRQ

O=c1c(-c2ccc(O)cc2)coc2cc(O)cc(O)c12 [GENISTEIN]
inhibitor [+]: all assays above
